Experimental data as given in patent publication US20070207093A1, “Hydrazone derivatives and uses thereof” (Linquagen Corp., priority 2005, published 2007).

Legend:
Type in all cases: cell-based
[1] = test system: GPCR-mediated calcium activation step; assay: Calcium counterscreen (calcium sensitive dye, ATP stimulation); settings: Homo sapiens, 10 μM compound, same HEK293 TRPM5 cells, Calcium3 dye, read-out: Calcium Counterscreen (percent inhibition)
Procedure: (§1) Two counterscreen assays were run on separate cell plates utilizing the same cells as described above. In the calcium counterscreen, the cells were loaded with a calcium sensitive dye (Calcium3 Dye, Part no. 8090, Molecular Devices Corp.) and stimulated by ATP to check for compounds that block the GPCR-mediated calcium activation step. In the KCl counterscreen, cells are stimulated with 10 mM KCl instead of ATP to check for compounds that inhibit the membrane potential response by virtue of being non-specific ion channel blockers.
(§2) Unless otherwise indicated, the data in the table below were determined using the three assays described above, providing percent inhibition data at 10 μM.

[2] = test system: membrane potential response (non-specific ion channel block); assay: KCl counterscreen (membrane potential dye, 10 mM KCl stimulation); settings: Homo sapiens; 10 μM compound; same HEK293 TRPM5 cells; 10 mM KCl instead of ATP; read-out: KC1 Counterscreen (percent inhibition)
Procedure: as §1, §2

human TRPM5 ion channel = target: T1, human TRPM5 ion channel (Homo sapiens, UniProt Q9NZQ8); assay: TRPM5 FLIPR membrane potential screening assay (ATP stimulation); settings: 10 μM compound; HEK293 cells stably expressing human TRPM5; 3 μM ATP stimulation; versus negative control wells; read-out: TRPM5 Activity (percent inhibition)
T1 construct: expressed in transfected cells
T1 sequence (Q9NZQ8 1-1165): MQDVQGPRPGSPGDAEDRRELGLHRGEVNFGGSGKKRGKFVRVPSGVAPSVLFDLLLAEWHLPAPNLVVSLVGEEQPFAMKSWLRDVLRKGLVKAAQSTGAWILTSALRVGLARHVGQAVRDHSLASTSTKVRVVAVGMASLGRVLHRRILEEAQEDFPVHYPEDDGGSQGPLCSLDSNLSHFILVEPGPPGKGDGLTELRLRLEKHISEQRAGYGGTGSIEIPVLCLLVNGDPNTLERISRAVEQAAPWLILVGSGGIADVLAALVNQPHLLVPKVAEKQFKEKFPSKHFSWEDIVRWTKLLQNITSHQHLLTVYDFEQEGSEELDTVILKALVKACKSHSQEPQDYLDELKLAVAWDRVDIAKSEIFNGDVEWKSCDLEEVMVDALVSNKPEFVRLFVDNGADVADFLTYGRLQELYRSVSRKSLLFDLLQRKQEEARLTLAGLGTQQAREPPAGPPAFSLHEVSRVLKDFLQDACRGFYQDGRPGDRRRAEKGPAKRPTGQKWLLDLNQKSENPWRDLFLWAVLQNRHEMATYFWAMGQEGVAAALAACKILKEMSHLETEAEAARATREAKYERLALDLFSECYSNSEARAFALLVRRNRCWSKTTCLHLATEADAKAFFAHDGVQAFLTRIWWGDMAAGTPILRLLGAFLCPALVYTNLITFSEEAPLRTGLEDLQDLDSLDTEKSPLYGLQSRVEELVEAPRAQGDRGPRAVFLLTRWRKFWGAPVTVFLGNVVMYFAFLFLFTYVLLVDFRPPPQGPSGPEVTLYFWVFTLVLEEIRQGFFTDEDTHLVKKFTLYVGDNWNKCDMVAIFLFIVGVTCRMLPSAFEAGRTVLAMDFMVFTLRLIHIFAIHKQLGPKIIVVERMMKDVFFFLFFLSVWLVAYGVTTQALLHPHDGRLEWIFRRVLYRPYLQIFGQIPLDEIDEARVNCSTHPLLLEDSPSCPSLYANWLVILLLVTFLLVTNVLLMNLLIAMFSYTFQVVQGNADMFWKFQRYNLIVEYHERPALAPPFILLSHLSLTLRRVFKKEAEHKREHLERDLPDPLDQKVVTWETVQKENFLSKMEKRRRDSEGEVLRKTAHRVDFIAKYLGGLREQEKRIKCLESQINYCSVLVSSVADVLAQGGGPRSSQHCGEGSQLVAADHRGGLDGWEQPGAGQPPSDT
Procedure: The activity of human TRPM5 ion channel was measured in live cells on a fluorescent imaging plate reader (FLIPR). The basis of the assay (shown in FIG. 1) is the calcium-dependent activation of the ion channel which occurs via by activation of a G-protein coupled receptor (GPCR). GPCR activation by an appropriate agonist causes a transient increase in […] Ca^2+ ion concentration which in turn causes the ion channel to open, letting in Na^+ ions. This influx causes a change in the membrane potential of the cell which can be monitored as a change in the fluorescent signal from voltage-dependent (membrane potential) fluorescent dyes.
For the screening assay, the human TRPM5 gene was cloned, put into HEK293 cells, and a stable, high expression clone was used for screening. Cells were grown in standard media at 37° C. The day before screening, the cells were removed from flasks and added to 384 well clear bottom plates (8K cells in 20 μL/well). On the assay day, 20 μL of membrane potential dye (Part No. R8123, Molecular Devices Corp.) was added to the cells and dye was allowed to be taken up, i.e., load, into the cells for 1 hr at 37° C. […] The assay was started by addition of 10 μL of solution from the compound plate into the cell plate. During this process, continuous fluorescent recordings were made simultaneously for all wells. After addition of the compound solution, the tips were automatically washed and a stimulation solution of 3 μM ATP (an agonist for an endogenous purinurgic GPCR, was added to all wells of the cell plate. The height of the response was calculated and percent inhibition values, versus negative control wells, was calculated for the test samples.
as §2

inhibition at 10 µM (human TRPM5 ion channel) [%]	SMILES	inhibition at 10 µM [1] [%]	inhibition at 10 µM [2] [%]
87	O=C(O)COc1ccc(Br)cc1/C=N/Nc1cccc2cccnc12 [Example 2, (E)-2-(4-Bromo-2-((2-(quinolin-8-yl)hydrazono)methyl)phenoxy)acetic acid]	-10	70
99	COc1ccc(/C=N/NC(=O)C2CC2c2ccccc2)cc1OC (stereo not drawn) [Example 4, (E)-N′-(3,4-Dimethoxybenzylidene)-2-phenylcyclopropanecarbohydrazide]	-1	-4
96	COc1ccc(/C=N/NC(=O)CC(CO)C2=CCCCC2)cc1 (stereo not drawn) [Example 5, (E)-3-Cyclohexenyl-4-hydroxy-N′-(4-methoxybenzylidene)butanehydrazide]	-7	29
93	CCCCCCCC(O)CCC(=O)N/N=C/c1ccc(OC)c(OC)c1 (stereo not drawn) [Example 6]	0	-15
76	COc1ccc(/C=N/NC(=O)COc2cccc(C)c2)cc1OC [Example 8, (E)-N′-(3,4-Dimethoxybenzylidene)-2-(m-tolyloxy)acetohydrazide]	-3	7
80	C=CCOc1ccc(/C=N/NC(=O)CSCc2cccc(Br)c2)cc1OC [Example 9, (E)-N′-(4-(Allyloxy)-3-methoxybenzylidene)-2-(3-bromobenzylthio)acetohydrazide]	2	21
78	CC(C)c1ccc(/C=N/NC(=O)C2C3CCCCC32)cc1 (stereo not drawn) [Example 10, (E)-N′-(4-Isopropylbenzylidene)bicyclo[4.1.0.]heptane-7-carbohydrazide]	-38	-11
67	CN1/C(=C\C=N\Nc2ccc([N+](=O)[O-])cc2)C(C)(C)c2ccccc21 [Example 11, (Z)-1,3,3-Trimethyl-2-((E)-2-(2-(4-nitrophenyl)hydrazono)ethylidene)indoline]	23	14
48	CCN(CC)c1ccc(/C=N/NC(=O)C2CC2c2ccccc2)c(O)c1 (stereo not drawn) [Example 12, (E)-N′-(4-(Diethylamino)-2-hydroxybenzylidene) -2-phenylcyclopropanecarbohydrazide]	-35	-7
74	CCCCn1cc(/C=N\Nc2ccccc2C(=O)O)c2ccccc21 [Example 15, (Z)-2-(2-((1-Butyl-1H-indol-3-yl)methylene)hydrazinyl)benzoic acid]	4	43
40	O=C(N/N=C\c1ccc[nH]1)C12CC3CC(CC(C3)C1)C2 [Example 17, (Z)-N′-((1H-Pyrrol-2-yl)methylene)tricyclo [3.3.1^3,7]decane-3-carbohydrazide]	-13	8
70	Cc1ccc(NCC(=O)N/N=C/c2ccc(N3CCOCC3)c([N+](=O)[O-])c2)cc1C [Example 20, (E)-2-(3,4-Dimethylphenylamino)-N′-(4-morpholino-3-nitrobenzylidene)acetohydrazide]	-3	16
58	CCN(CC)c1ccc(/C=N/Nc2nc3ccccc3[nH]2)c(O)c1 [Example 22, (E)-2-((2-(1H-Benzo[d]imidazol-2-yl)hydrazono)methyl)-5-(diethylamino)phenol]	-23	32

The next lines start with the compound.

SMILES	inhibition at 10 µM (human TRPM5 ion channel) [%]	inhibition at 10 µM [1] [%]	inhibition at 10 µM [2] [%]
COC(=O)c1ccc(/N=N/C(=N\Nc2nc3ccccc3s2)C(C)C)cc1 [Example 1, Methyl 4-((E)-((Z)-1-(2-(benzo[d]thiazol-2-yl)hydrazono) -2-methylpropyl)diazenyl)benzoate]	60	-11	20
O=C(O)c1ccccc1N/N=C(\N=N\c1ccccc1)c1ccccc1 [Example 7, 2-((Z)-2-(Phenyl-((E)-phenyldiazenyl) -methylene)hydrazinyl)benzoic acid]	83	-17	81
N#CC(C#N)=NNc1ccc(SC(F)(F)F)cc1 [Example 13, (4-(Trifluoromethylthio)penyl)carbonohydrazonoyldicyanide]	78	2	65
Cc1ccc2c(c1)/C(=N/NC(=O)/C(=C\c1ccccc1)NC(=O)c1ccccc1)C(=O)N2C [Example 14, N-((E)-3-((Z)-2-(1,5-Dimethyl-2-oxoindolin-3-ylidene)hydrazinyl)-3-oxo-1-phenylprop-1-en-2-yl)benzamide]	78	-29	40
C(=N\N(Cc1ccccc1)c1ccccc1)/c1ccncc1 [Example 16, (E)-4-((2-Benzyl-2-phenylhydrazono)methyl)pyridine]	74	-6	-2
CCN(CCO)c1ccc(N/N=C2\C(=O)C=Cc3ccccc32)cc1 [Example 18, (Z)-1-(2-(4-(Ethyl-(2-hydroxyethyl)-amino)phenyl)hydrazono)naphthalen-2(1H)-one]	87	-9	33
CN(/N=C/c1ccc(O)cc1O)c1ncc(Cl)cc1C(F)(F)F [Example 19, (E)-4-((2-(5-Chloro-3-(trifluoromethyl)pyridini-2-yl)-2-2-methylhydrazono)methyl)benzene-1,3-diol]	65	5	36
O=[N+](O)c1ccc(N2CCCC2)cc1N/N=C1\CN2CCC1CC2 [Example 21]	51	6	42
